Experiments:
[1] = molecular target: Ephrin type-A receptor 2 (Homo sapiens) (UniProt P29317); settings: Compound concentration 1000.0 nM
[2] = molecular target: Receptor tyrosine-protein kinase erbB-3 (Homo sapiens) (UniProt P21860); settings: Compound concentration 1000.0 nM
[3] = molecular target: Cyclin-dependent kinase 11A (Homo sapiens) (UniProt Q9UQ88); settings: Compound concentration 1000.0 nM
[4] = molecular target: cGMP-inhibited 3',5'-cyclic phosphodiesterase 3A (Homo sapiens) (UniProt Q14432); assay: PDE3A (h) Eurofins-Cerep enzyme and uptake assay; settings: Compound concentration 10.0 uM
[5] = molecular target: Beta-2 adrenergic receptor (Homo sapiens) (UniProt P07550); assay: Beta2 (h) Eurofins-Cerep binding assay; design: ligand concentration 0.3 nM; settings: filed as antagonist, Compound concentration 10.0 uM
[6] = molecular target: Serine/threonine-protein kinase 38-like (Homo sapiens) (UniProt Q9Y2H1); settings: Compound concentration 1000.0 nM
[7] = molecular target: Receptor-interacting serine/threonine-protein kinase 1 (Homo sapiens) (UniProt Q13546); settings: Compound concentration 1000.0 nM
[8] = molecular target: Death-associated protein kinase 3 (Homo sapiens) (UniProt O43293); settings: Compound concentration 1000.0 nM
[9] = molecular target: Receptor-interacting serine/threonine-protein kinase 4 (Homo sapiens) (UniProt P57078); settings: Compound concentration 1000.0 nM
[10] = molecular target: Serine/threonine-protein kinase 16 (Homo sapiens) (UniProt O75716); settings: Compound concentration 1000.0 nM
[11] = molecular target: Type-2 angiotensin II receptor (Homo sapiens) (UniProt P50052); assay: AT2 (h) Eurofins-Cerep binding assay; design: ligand concentration 0.01 nM; settings: filed as agonist, Compound concentration 10.0 uM
[12] = molecular target: Mitogen-activated protein kinase 6 (Homo sapiens) (UniProt Q16659); settings: Compound concentration 1000.0 nM
[13] = molecular target: Casein kinase I isoform epsilon (Homo sapiens) (UniProt P49674); settings: Compound concentration 1000.0 nM
[14] = molecular target: Uncharacterized serine/threonine-protein kinase SBK3 (Homo sapiens) (UniProt P0C264); settings: Compound concentration 1000.0 nM
[15] = GPCRScan assay: inhibition of GABA/PBR; design: species or system Rattus norvegicus; radioligand conc. used [nm] 0.3 – 2.0, parental cells brain tissue
[16] = molecular target: Ephrin type-B receptor 6 (Homo sapiens) (UniProt O15197); settings: Compound concentration 1000.0 nM
[17] = molecular target: T1, 5-hydroxytryptamine receptor 2C (Homo sapiens) (UniProt P28335); assay: 5-HT2C (h) Eurofins-Cerep binding assay; design: ligand concentration 1 nM; settings: filed as antagonist, Compound concentration 10.0 uM
T1 sequence (whole entry): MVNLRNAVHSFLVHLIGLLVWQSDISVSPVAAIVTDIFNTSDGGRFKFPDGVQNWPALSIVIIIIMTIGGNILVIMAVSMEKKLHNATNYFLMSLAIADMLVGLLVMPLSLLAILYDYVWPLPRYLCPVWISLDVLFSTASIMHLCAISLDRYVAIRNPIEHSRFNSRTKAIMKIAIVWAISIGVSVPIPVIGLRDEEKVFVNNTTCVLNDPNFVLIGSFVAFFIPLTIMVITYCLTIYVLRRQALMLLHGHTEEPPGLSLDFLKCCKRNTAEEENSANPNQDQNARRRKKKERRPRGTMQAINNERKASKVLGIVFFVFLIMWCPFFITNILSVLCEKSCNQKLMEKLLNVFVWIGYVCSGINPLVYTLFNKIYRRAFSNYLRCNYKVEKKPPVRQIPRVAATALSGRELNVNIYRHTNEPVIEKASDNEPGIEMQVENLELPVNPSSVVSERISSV

[18] = test system: Leucine-rich repeat serine/threonine-protein kinase 2 (Homo sapiens), Q5S007 [G2019S]; settings: Compound concentration 1000.0 nM
[19] = molecular target: Serine/threonine-protein kinase ULK1 (Homo sapiens) (UniProt O75385); settings: Compound concentration 1000.0 nM
[20] = molecular target: Serine/threonine-protein kinase D1 (Homo sapiens) (UniProt Q15139); settings: Compound concentration 1000.0 nM
[21] = molecular target: Ephrin type-B receptor 2 (Homo sapiens) (UniProt P29323); settings: Compound concentration 1000.0 nM
[22] = molecular target: Sigma non-opioid intracellular receptor 1 (Homo sapiens, UniProt Q99720); settings: Compound concentration 10.0 uM
[23] = molecular target: Death-associated protein kinase 2 (Homo sapiens) (UniProt Q9UIK4); settings: Compound concentration 1000.0 nM
[24] = molecular target: Serine/threonine-protein kinase STK11 (Homo sapiens) (UniProt Q15831); settings: Compound concentration 1000.0 nM
[25] = molecular target: Serine/threonine-protein kinase Sgk2 (Homo sapiens) (UniProt Q9HBY8); settings: Compound concentration 1000.0 nM
[26] = test system: Proto-oncogene tyrosine-protein kinase receptor Ret (Homo sapiens), P07949 [M918T]; settings: Compound concentration 1000.0 nM
[27] = molecular target: Mitogen-activated protein kinase kinase kinase 7 (Homo sapiens) (UniProt O43318); settings: Compound concentration 1000.0 nM
[28] = molecular target: Serine/threonine-protein kinase VRK2 (Homo sapiens) (UniProt Q86Y07); settings: Compound concentration 1000.0 nM
[29] = molecular target: Sigma intracellular receptor 2 (Homo sapiens, UniProt Q5BJF2); assay: GPCRScan assay: inhibition of Sigma 2; design: radioligand conc. used [nm] 5.0, parental cells HEKT
[30] = molecular target: Homeodomain-interacting protein kinase 2 (Homo sapiens) (UniProt Q9H2X6); settings: Compound concentration 1000.0 nM
[31] = molecular target: SRSF protein kinase 2 (Homo sapiens) (UniProt P78362); settings: Compound concentration 1000.0 nM
[32] = molecular target: Glutamate NMDA receptor (Rattus norvegicus) (UniProt P35439+Q00959+Q00960+Q00961+Q62645+Q8VHN2+Q9R1M7); assay: NMDA Eurofins-Cerep binding assay; type: protein-complex assay; design: ligand concentration 5 nM; settings: filed as antagonist, Compound concentration 10.0 uM
[33] = molecular target: Ephrin type-A receptor 5 (Homo sapiens) (UniProt P54756); settings: Compound concentration 1000.0 nM
[34] = molecular target: Phosphatidylinositol 4,5-bisphosphate 3-kinase catalytic subunit gamma isoform (Homo sapiens) (UniProt P48736); settings: Compound concentration 1000.0 nM
[35] = molecular target: Myosin light chain kinase, smooth muscle (Homo sapiens) (UniProt Q15746); settings: Compound concentration 1000.0 nM
[36] = test system: Receptor-type tyrosine-protein kinase FLT3 (Homo sapiens), P36888 [D835V]; settings: Compound concentration 1000.0 nM
[37] = molecular target: B2 bradykinin receptor (Homo sapiens) (UniProt P30411); assay: B2 (h) Eurofins-Cerep binding assay; design: ligand concentration 0.3 nM; settings: filed as agonist, Compound concentration 10.0 uM
[38] = molecular target: Phosphatidylinositol 4,5-bisphosphate 3-kinase catalytic subunit delta isoform (Homo sapiens) (UniProt O00329); settings: Compound concentration 1000.0 nM

Death-associated protein kinase 3 (Homo sapiens), sequence (O43293 whole entry, looked up): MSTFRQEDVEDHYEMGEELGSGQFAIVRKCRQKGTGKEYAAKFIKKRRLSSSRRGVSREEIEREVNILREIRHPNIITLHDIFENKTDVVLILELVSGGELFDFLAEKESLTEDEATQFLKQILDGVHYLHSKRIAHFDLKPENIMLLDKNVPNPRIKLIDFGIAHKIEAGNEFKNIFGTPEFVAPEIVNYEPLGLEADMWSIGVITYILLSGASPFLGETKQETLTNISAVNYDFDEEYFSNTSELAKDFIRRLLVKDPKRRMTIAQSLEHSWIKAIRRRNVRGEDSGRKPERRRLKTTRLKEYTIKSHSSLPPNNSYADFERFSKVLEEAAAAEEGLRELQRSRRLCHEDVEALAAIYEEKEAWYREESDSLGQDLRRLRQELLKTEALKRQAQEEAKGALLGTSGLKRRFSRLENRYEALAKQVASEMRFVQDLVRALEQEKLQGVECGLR
Ephrin type-B receptor 6 (Homo sapiens), sequence (O15197 whole entry): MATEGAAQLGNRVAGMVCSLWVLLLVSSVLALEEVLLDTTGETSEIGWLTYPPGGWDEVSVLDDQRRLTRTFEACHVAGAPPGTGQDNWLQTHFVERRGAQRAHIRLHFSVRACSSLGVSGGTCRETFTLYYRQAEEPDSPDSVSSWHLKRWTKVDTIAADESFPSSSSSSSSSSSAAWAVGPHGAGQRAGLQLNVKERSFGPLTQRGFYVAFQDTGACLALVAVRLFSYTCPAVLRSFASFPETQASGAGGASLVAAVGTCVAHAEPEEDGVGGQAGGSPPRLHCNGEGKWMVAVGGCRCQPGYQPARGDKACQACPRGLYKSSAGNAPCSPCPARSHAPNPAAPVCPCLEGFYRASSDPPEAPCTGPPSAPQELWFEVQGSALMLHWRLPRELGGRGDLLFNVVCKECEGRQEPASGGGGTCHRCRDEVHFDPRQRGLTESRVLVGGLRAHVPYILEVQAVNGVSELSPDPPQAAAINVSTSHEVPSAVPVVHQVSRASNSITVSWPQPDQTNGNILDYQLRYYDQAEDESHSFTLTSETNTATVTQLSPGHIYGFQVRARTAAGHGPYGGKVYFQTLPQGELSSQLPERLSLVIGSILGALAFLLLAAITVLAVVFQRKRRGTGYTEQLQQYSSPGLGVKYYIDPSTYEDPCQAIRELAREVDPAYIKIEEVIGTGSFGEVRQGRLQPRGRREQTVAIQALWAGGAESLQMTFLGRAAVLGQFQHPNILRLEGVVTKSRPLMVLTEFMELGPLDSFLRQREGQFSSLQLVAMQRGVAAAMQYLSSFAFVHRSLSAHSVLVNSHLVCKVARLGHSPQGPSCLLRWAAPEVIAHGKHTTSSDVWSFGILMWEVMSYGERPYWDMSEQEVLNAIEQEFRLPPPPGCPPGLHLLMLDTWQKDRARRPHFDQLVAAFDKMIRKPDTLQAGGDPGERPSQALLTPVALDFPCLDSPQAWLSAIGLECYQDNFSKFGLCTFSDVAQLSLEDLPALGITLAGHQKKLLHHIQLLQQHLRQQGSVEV
Proto-oncogene tyrosine-protein kinase receptor Ret (Homo sapiens), P07949 [M918T], sequence (P07949 whole entry M918T): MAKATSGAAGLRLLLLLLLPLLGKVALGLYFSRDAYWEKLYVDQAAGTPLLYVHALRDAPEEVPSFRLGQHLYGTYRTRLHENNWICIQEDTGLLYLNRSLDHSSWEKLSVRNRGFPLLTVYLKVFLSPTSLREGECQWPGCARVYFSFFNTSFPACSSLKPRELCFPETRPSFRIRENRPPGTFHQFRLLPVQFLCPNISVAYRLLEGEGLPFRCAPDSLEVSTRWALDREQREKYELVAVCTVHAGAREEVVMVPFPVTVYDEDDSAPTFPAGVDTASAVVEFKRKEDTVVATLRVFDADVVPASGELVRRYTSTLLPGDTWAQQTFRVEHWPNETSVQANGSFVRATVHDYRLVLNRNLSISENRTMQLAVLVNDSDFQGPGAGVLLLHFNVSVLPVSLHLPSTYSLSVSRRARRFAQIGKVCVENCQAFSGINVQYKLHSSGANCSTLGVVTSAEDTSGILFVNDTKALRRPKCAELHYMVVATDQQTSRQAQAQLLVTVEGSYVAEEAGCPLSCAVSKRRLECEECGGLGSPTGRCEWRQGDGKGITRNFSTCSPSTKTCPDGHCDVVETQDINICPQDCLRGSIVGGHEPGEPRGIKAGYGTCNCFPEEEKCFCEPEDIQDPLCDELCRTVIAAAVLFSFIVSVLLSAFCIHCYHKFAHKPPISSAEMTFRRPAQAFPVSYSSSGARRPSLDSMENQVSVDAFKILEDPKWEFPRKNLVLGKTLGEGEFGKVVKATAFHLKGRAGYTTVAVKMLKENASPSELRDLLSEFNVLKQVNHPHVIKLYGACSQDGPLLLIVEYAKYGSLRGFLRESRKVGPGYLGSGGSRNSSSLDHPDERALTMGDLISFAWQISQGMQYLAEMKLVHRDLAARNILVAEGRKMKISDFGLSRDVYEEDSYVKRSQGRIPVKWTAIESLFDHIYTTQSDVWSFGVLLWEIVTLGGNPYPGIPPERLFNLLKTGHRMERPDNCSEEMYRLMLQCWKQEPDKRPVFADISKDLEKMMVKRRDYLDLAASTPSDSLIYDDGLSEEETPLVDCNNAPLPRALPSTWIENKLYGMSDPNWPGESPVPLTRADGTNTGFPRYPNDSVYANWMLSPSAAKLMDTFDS
Type-2 angiotensin II receptor (Homo sapiens), sequence (P50052 whole entry): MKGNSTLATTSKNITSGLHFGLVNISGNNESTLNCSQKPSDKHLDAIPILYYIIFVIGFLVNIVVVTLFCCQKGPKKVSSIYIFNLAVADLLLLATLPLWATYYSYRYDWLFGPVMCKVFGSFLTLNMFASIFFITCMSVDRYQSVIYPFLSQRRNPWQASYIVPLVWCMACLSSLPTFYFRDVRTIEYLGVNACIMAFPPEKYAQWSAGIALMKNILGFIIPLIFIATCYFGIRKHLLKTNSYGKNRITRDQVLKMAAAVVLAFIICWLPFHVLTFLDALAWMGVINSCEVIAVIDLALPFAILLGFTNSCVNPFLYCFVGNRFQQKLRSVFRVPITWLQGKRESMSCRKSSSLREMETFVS
Death-associated protein kinase 2 (Homo sapiens), sequence (Q9UIK4 whole entry, looked up): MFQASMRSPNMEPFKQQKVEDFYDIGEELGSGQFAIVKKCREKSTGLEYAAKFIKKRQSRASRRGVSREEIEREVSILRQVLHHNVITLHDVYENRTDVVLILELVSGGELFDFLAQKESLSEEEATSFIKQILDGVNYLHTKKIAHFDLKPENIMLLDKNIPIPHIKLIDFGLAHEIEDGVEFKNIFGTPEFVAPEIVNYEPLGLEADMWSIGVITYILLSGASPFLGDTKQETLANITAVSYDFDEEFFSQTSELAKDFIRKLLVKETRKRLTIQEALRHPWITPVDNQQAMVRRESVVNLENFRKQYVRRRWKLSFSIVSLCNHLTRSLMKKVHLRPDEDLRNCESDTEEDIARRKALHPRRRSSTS
Mitogen-activated protein kinase 6 (Homo sapiens), sequence (Q16659 whole entry, canonical isoform): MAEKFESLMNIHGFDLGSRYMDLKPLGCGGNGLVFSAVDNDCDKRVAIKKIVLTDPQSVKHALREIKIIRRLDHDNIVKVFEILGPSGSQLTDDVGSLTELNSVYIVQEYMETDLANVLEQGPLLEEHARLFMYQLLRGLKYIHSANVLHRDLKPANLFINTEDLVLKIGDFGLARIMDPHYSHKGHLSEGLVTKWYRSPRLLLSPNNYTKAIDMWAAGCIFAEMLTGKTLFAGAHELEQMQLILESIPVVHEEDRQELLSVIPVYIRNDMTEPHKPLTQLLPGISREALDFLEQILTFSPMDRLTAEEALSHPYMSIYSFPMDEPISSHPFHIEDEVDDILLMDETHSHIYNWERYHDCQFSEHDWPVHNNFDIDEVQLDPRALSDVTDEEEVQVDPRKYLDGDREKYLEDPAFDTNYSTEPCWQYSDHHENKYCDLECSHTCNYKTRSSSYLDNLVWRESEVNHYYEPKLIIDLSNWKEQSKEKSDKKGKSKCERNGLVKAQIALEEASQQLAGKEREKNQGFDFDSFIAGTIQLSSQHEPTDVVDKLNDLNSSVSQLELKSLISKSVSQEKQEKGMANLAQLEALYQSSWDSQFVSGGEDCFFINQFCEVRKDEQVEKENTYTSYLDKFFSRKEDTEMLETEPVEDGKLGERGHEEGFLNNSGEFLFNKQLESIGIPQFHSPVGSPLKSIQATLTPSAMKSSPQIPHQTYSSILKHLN
Serine/threonine-protein kinase STK11 (Homo sapiens), sequence (Q15831 whole entry): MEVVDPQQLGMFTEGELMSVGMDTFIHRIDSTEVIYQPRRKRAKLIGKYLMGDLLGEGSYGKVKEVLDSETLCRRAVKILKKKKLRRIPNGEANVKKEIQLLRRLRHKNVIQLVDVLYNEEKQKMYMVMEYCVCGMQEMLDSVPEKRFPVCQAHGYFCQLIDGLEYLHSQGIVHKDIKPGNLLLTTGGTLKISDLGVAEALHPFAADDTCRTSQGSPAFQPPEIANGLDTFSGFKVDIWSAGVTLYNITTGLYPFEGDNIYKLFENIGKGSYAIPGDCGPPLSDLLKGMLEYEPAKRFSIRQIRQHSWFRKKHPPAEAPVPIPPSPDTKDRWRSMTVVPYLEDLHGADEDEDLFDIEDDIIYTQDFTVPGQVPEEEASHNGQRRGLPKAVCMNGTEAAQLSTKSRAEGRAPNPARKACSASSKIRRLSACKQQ
Serine/threonine-protein kinase 38-like (Homo sapiens), sequence (Q9Y2H1 2-464 limits assumed): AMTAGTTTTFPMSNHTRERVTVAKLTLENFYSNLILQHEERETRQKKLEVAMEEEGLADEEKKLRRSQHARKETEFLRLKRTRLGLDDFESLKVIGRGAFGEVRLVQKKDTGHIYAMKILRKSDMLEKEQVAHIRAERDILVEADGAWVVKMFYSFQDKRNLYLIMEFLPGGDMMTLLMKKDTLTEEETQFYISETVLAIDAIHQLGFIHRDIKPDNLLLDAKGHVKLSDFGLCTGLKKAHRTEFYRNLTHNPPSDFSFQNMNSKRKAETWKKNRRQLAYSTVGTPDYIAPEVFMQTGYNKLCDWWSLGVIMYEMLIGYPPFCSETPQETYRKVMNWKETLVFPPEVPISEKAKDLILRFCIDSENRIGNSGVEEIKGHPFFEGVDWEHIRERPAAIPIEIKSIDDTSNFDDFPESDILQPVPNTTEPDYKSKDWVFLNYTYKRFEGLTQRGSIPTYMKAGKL

Structure (SMILES) | residual activity [1] [%] | residual activity [2] [%] | residual activity [3] [%] | % Inhibition of Control Values (Mean n=2) [4] [%] | % Inhibition of Control Specific Binding (Mean n=2) [5] [%] | residual activity [6] [%] | residual activity [7] [%] | residual activity [8] [%] | residual activity [9] [%] | residual activity [10] [%] | % Inhibition of Control Specific Binding (Mean n=2) [11] [%] | residual activity [12] [%] | residual activity [13] [%] | residual activity [14] [%] | Ki [15] [nM] | pKi [15] | residual activity [16] [%] | % Inhibition of Control Specific Binding (Mean n=2) [17] [%] | residual activity [18] [%] | residual activity [19] [%] | other results
COc1ccc2c(c1)O[C@@H](c1ccc(OC)c(OC)c1)C[C@H]2NC(=O)C1(c2ccc3c(c2)OC(F)(F)O3)CC1 [A-1596586] | 95 | 86 | 100 | 1.2 | 7 | 100 | 93 | 93 | 67 | 81 | 4.9 | 100 | 100 | 100 | 19.6 | 7.71 | 61 | 6.4 | 90 | 75 | residual activity [20]: 95%; residual activity [21]: 100%; inhibition [22]: 82.8%; residual activity [23]: 98%; residual activity [24]: 65%; residual activity [25]: 94%; residual activity [26]: 90%; residual activity [27]: 100%; residual activity [28]: 67%; Ki [29]: 1190 nM; residual activity [30]: 96%; residual activity [31]: 91%; % Inhibition of Control Specific Binding (Mean n=2) [32]: 8.7%; residual activity [33]: 100%; residual activity [34]: 74%; residual activity [35]: 85%; residual activity [36]: 99%; % Inhibition of Control Specific Binding (Mean n=2) [37]: -13.5%; residual activity [38]: 97%
COc1ccc2c(c1)O[C@H](c1ccc(OC)c(OC)c1)C[C@@H]2NC(=O)C1(c2ccc3c(c2)OC(F)(F)O3)CC1 [A-1596584] | 94 | 92 | 100 | -2.1 | 11.6 | 100 | 100 | 95 | 75 | 100 | -3.4 | 100 | 100 | 100 | 218 | 6.66 | 85 | 1.2 | 100 | 88 | residual activity [20]: 100%; residual activity [21]: 84%; inhibition [22]: 53%; residual activity [23]: 98%; residual activity [24]: 100%; residual activity [25]: 100%; residual activity [26]: 99%; residual activity [27]: 100%; residual activity [28]: 82%; Ki [29]: 584 nM; residual activity [30]: 98%; residual activity [31]: 100%; % Inhibition of Control Specific Binding (Mean n=2) [32]: 1.3%; residual activity [33]: 100%; residual activity [34]: 74%; residual activity [35]: 100%; residual activity [36]: 92%; % Inhibition of Control Specific Binding (Mean n=2) [37]: -8.3%; residual activity [38]: 85%

Reference: ChEMBL document CHEMBL4507262, “Data for DCP probe A-1596586” (2021)
